In one test the test system is MLL-KIX PPI site. The following applies: cited from earlier work.
Test [1] addresses T1, CBP/p300 KIX domain (Mus musculus, UniProt P45481). Kind of test: PrOF NMR ligand titration. The format is binding.
In test [2] the target is T1, CBP/p300 KIX domain. Kind of test: PrOF NMR chemical shift perturbation at fixed ligand concentration. The format is binding. The following applies: 3FY-labeled KIX; 833 µM to 5 mM small molecule.

T1 sequence (P45481 586-665): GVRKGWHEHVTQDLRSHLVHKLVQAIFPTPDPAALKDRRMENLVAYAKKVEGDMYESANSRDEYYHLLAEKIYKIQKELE

As for `CCCCCc1c2c(cc(O)c1C(=O)O)OC(=O)c1c(cc(OC)cc1C(=O)CCCC)O2` [lobaric acid], the IC50 (as a rule, the concentration needed to halve the response being measured) with MLL-KIX PPI site is 17 µM. For the compound `CC(C(=O)O)c1ccc(-c2ccccc2)c(F)c1` (stereo not drawn) [Flurbiprofen, flurbiprofen], on CBP/p300 KIX domain [1], the affinity, expressed as Kd, was 5.9 ± 0.6 mM. For the same compound, the “Ligand Efficiency” value at CBP/p300 KIX domain [1] (calculated from the PrOF Kd) was 0.17 kcal mol^−1 NHA^−1. For the compound `O=C(Nc1ccc(Cl)cc1)c1cc2ccccc2cc1OP(=O)(O)O` [KG-501, Naphthol AS-E phosphate], the “chemical shift perturbation (PrOF NMR), in words” value on CBP/p300 KIX domain [2] is recorded as “identified a binding interaction”. Take `CCCc1cc(OC)cc(O)c1C(=O)Oc1c(OC)cc(CCC)c(C(=O)O)c1O` [sekikaic acid]: the IC50 in the test on MLL-KIX PPI site was 34 µM. For the compound `CC(C)Cc1ccc(C(C)C(=O)O)cc1` (stereo not drawn) [ibuprofen], the “chemical shift perturbation (PrOF NMR), in words” value at CBP/p300 KIX domain [2] is recorded as “significant chemical shift perturbations”.

The record behind these values is paper PMC4423596 (Angewandte Chemie (International ed. in English), 2015).
